Source: paper PMC10146957, “Systematic Studies on Anti-Cancer Evaluation of Stilbene and Dibenzo[b,f]oxepine Derivatives” (Molecules, 2023)
Like-named read-outs stand apart in the source and are kept apart here.

Legend:
[1] = design: method as in PMID 29318022; details: generally well tolerated; cited from earlier work
[2] = system: HCT116 cells; test: MTT cytotoxicity assay, HCT116 cells; assay type: cell-based, human; details: for cell viability (in words): 100 μM, 48 h of treatment; for IC50: Homo sapiens, HCT-116, 48 h, mean ± SEM
Method: (§1) Cells were cultured in a humidified incubator at 37 °C under 5% CO2. Human colorectal carcinoma (HCT116) cells were grown in McCoy’s 5A Medium (ATCC, Catalog No. 30-2007), human breast adenocarcinoma (MCF-7) and human dermal fibroblasts (HDF-A) cells were maintained in Dulbecco’s Modified Eagle’s Medium (DMEM, Sigma D5546) supplemented with 2 mM L-glutamine. Human embryonic kidney (HEK293) cell line was cultured in Dulbecco’s Modified Eagle’s Medium (DMEM, Gibco 31966-021). All culture media were supplemented with 1% Penicillin-Streptomycin (Sigma-Aldrich, P4333) and 10% fetal bovine serum (Gibco, 10270-106). Cells were sub-cultured at approximately 80–90% confluency to maintain the culture in the logarithmic growth phase.
(§2) Cells were seeded at a 96-well plate at the density of 7 × 10^3 cells per well and allowed to grow for 24 h. Afterward, the medium was aspirated and fresh medium was added (200 μL) with serial dilutions (100 − 10 μM) of tested compounds or DMSO at corresponding concentrations as a control. Following 48 h of incubation, the medium was replaced with phenol red-free medium (100 μL) containing MTT (3-(4,5-dimethylthiazol-2-yl)-2,5-diphenyl-2H-tetrazolium bromide, 0.5 mg/mL) and replaced in the incubator for 4 h. The formed formazan was dissolved in DMSO (100 μL) followed by incubation of the mixture at 37 °C for 10 min. The absorbance was measured at 540 nm. After blank subtraction, the half maximal effective concentration (EC50) was calculated by GraphPad Prism software (GraphPad Software Inc, San Diego, CA, USA).

[3] = system: HEK293 cells; test: MTT cytotoxicity assay, HEK293 cells; assay type: cell-based; details: Homo sapiens, 48 h, mean ± SEM
Method: as §1, §2

[4] = system: HDF-A cells; test: MTT cytotoxicity assay, HDF-A cells; assay type: cell-based; details: Homo sapiens, HDFa
Method: as §1, §2

[5] = system: MCF-7 cells; test: MTT cytotoxicity assay, MCF-7 cells; assay type: cell-based; details: Homo sapiens, MCF7, 48 h, mean ± SEM
Method: as §1, §2

[6] = MTT cytotoxicity assay, HCT116 cells; assay type: cell-based, human; details: human, HCT116 cells (human colorectal carcinoma), 100 μM, 48 h of treatment, read-out: cell viability
Method: as §1, §2

[7] = system: HCT116 cells; test: Immunofluorescence of microtubular network (anti-α-tubulin 12G10); assay type: cell-based, human; details: 60 µm of compound, 24 h, anti-α-tubulin staining
Method: Cells were seeded on coverslips at a 24-well plate at a density of 5 × 10^4 cells per well and allowed to grow overnight. Next medium was replaced with a medium containing 60 μM solution of the selected compound and incubated for 24 h. Then, cells were fixed and permeabilized with 100% methanol at −20 °C for 15 min and subsequently washed three times with PBS at room temperature. After 1 h blocking with 3% BSA/PBS at 4 °C, slides were incubated with anti-alpha-tubulin 12G10 primary antibody (Developmental Studies Hybridoma Bank, University of Iowa, Iowa City, IA, USA) (diluted to 2 µg/mL in 3% BSA/PBS) overnight at 4 °C. After 3 × 10 min washing with PBS, slides were incubated with AlexaFluor 555-conjugated secondary antibody (diluted to 50 ng/mL in 3% BSA/PBS) (Thermo Fisher Scientific, Waltham, MA, USA, A31570) for 1 h at room temperature. After washing (3 × 10 min with PBS), slides were mounted in Fluoromount-G (Southern Biotech., Birmingham, AL, USA). Cells were recorded using Leica TCS SP8 (Leica Microsystems, Wetzlar, Germany) confocal microscope.

[8] = system: normal cell lines; design: method as in PMID 31865147; details: cited from earlier work
[9] = system: HeLa (cervical cancer) cells; design: method as in PMID 31865147; details: cited from earlier work
[10] = system: U87 (glioblastoma) cells; design: method as in PMID 31865147; details: cited from earlier work
[11] = MTT, 48 h, mean ± SEM, read-out: HDF-A IC50

SMILES	melting point [°C]	IC50 [3] [µM]	IC50 [2] [µM]	viability at 48 h, 100 µM [6] [%]	further results
COc1ccc(/C=C\c2cc(OC)c(OC)c(OC)c2)cc1OP(=O)(O)O [CA4P/fosbretabulin, combretastatin A-4 phosphate]	–	–	–	–	side effect [1]: acute but transient hypertension
COc1cc(O)c(/C=C/c2ccc([N+](=O)[O-])cc2[N+](=O)[O-])cc1OC [Compound 1f, (E)-2-hydroxy-4,5-dimethoxy-2′,4′-dinitrostilbene]	221	–	–	–	cell viability (in words) [2]: only minimally affected
COc1ccc(O)c(/C=C/c2ccc([N+](=O)[O-])cc2[N+](=O)[O-])c1 [Compound 1d, (E)-2-hydroxy-5-methoxy-2′,4′-dinitrostilbene]	168	33 ± 2	18 ± 3	< 30	IC50 [4, 11]: 40 ± 2 µM; IC50 [5]: 47 ± 1 µM; effect on microtubular network [7]: density of the microtubular network was decreased
O=[N+]([O-])c1ccc(/C=C/c2ccccc2O)c([N+](=O)[O-])c1 [Compound 1a, (E)-2-hydroxy-2′,4′-dinitrostilbene]	192	18 ± 1	23 ± 1	< 30	IC50 [4, 11]: 38 ± 1 µM; IC50 [5]: 36 ± 2 µM
COc1cccc2c1Oc1cc([N+](=O)[O-])ccc1C=C2 [Compound 2b, 6-methoxy-3-nitrodibenzo[b,f]oxepine]	184	–	–	–	cell viability (in words) [2]: only minimally affected
COc1ccc(/C=C/c2ccc([N+](=O)[O-])cc2[N+](=O)[O-])c(O)c1 [Compound 1c, (E)-2-hydroxy-4-methoxy-2′,4′-dinitrostilbene]	–	34 ± 4	38 ± 5	< 30	IC50 [4, 11]: 40 ± 4 µM; IC50 [5]: 43 ± 2 µM
O=[N+]([O-])c1ccc(/C=C/c2ccc(O)cc2O)c([N+](=O)[O-])c1 [Compound 1i, (E)-2,4-dihydroxy-2′,4′-dinitrostilbene]	201	54 ± 2	52 ± 2	< 30	IC50 [4, 11]: 41 ± 2 µM; IC50 [5]: 69 ± 3 µM
O=[N+]([O-])c1ccc2c(c1)Oc1ccccc1C=C2 [Compound 2a, 3-nitrodibenzo[b,f]oxepine]	156	–	–	–	–
CC(=O)Oc1ccc2c(c1)Oc1cc(N)ccc1C=C2 [Compound 3j, 7-aminodibenzo[b,f]oxepin-3-yl acetate]	145	–	–	–	–
O=[N+]([O-])c1ccc2c(c1)Oc1ccc3ccccc3c1C=C2 [Compound 2h, 9-nitrobenzo[b]naphtho[1,2-f]oxepine]	197	–	–	–	activity in normal cell lines [8]: severe activity; anti-cancer activity compared with HTC116 cells [9]: significantly more active; anti-cancer activity compared with HTC116 cells [10]: significantly more active
COc1cccc(O)c1/C=C/c1ccc([N+](=O)[O-])cc1[N+](=O)[O-]	212	–	–	–	–
COc1cc2c(cc1OC)Oc1cc([N+](=O)[O-])ccc1C=C2 [Compound 2f, 2,3-dimethoxy-7-nitrodibenzo[b,f]oxepine]	–	–	–	–	cell viability (in words) [2]: only minimally affected
O=[N+]([O-])c1ccc2c(c1)C=Cc1ccc([N+](=O)[O-])cc1O2	216	–	–	–	–
COc1cc2c(cc1OC)Oc1cc(N)ccc1C=C2 [Compound 3f, 7,8-dimethoxydibenzo[b,f]oxepin-3-amine]	–	–	–	–	cell viability (in words) [2]: only minimally affected
COc1cccc2c1Oc1cc(N)ccc1C=C2 [Compound 3b, 6-methoxydibenzo[b,f]oxepin-3-amine]	–	–	–	–	cell viability (in words) [2]: only minimally affected
O=[N+]([O-])c1ccc2c(c1)Oc1cc(O)ccc1C=C2 [Compound 2i, 7-nitrodibenzo[b,f]oxepin-3-ol]	164	88 ± 5	55 ± 4	< 30	IC50 [4, 11]: 93 ± 7 µM; IC50 [5]: 67 ± 6 µM
COc1cccc(/C=C/c2ccc([N+](=O)[O-])cc2[N+](=O)[O-])c1O [Compound 1b, (E)-2-hydroxy-3-methoxy-2′,4′-dinitrostilbene]	182	–	–	–	cell viability (in words) [2]: only minimally affected
COc1ccc2c(c1)Oc1cc([N+](=O)[O-])ccc1C=C2 [Compound 2c, 3-methoxy-7-nitrodibenzo[b,f]oxepine]	189	–	–	–	–
Nc1ccc2c(c1)Oc1ccc3ccccc3c1C=C2 [Compound 3h, benzo[b]naphtho[1,2-f]oxepin-9-amine]	172	48 ± 3	66 ± 2	< 30	IC50 ([4]; predicted IC50, above the maximum concentration tested (100 μM), read-out: HDF-A IC50 (predicted)): > 100 µM
COc1ccc2c(c1)C=Cc1ccc([N+](=O)[O-])cc1O2 [Compound 2d, 2-methoxy-7-nitrodibenzo[b,f]oxepine]	167	–	–	–	–
CC(=O)Oc1ccc2c(c1)Oc1cc([N+](=O)[O-])ccc1C=C2 [Compound 2j, 7-nitrodibenzo[b,f]oxepin-3-yl acetate]	133	85 ± 4	53 ± 3	< 30	IC50 [5]: 36 ± 3 µM
COc1ccc2c(c1)C=Cc1ccc(N)cc1O2 [Compound 3d, 8-methoxydibenzo[b,f]oxepin-3-amine]	158	–	–	–	–
